Columns and labels:
[1] = molecular target: adenosine A2A receptor (Homo sapiens (Human), UniProt P29274); assay: Adenosine receptor activity assay (Table 1), A2A activity; format: biochemical; settings: read-out: Ave A2A cAMP IC50
[2] = molecular target: adenosine A2B receptor (Homo sapiens (Human), UniProt P29275); assay: Adenosine receptor activity assay (Table 1), A2B activity; format: biochemical; settings: for IC50: read-out: Ave A2B cAMP IC50
[3] = A2A activity to A2B activity (A2A/A2B)
[4] = A2A activity to the A2B activity, A2A/A2B

adenosine A2B receptor, sequence (P29275 whole entry): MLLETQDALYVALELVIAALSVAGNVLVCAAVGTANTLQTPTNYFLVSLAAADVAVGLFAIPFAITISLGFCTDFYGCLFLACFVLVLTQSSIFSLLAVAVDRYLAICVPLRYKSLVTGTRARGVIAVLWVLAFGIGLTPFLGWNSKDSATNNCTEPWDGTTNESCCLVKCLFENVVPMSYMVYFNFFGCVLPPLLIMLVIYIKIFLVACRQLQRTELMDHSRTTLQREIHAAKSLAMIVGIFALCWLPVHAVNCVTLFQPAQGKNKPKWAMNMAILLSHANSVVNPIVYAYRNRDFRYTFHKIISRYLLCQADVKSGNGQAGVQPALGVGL
adenosine A2A receptor, sequence (P29274 whole entry): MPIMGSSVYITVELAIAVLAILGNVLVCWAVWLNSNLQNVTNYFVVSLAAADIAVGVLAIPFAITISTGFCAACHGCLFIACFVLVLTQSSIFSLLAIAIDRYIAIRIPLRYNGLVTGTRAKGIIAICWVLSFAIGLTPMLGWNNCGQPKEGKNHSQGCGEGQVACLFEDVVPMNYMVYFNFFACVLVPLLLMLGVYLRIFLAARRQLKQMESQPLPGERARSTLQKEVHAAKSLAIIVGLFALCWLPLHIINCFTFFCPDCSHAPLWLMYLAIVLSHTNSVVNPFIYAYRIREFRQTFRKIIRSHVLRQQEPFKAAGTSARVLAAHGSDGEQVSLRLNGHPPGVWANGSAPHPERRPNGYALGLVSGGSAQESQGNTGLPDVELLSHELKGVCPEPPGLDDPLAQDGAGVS

| IC50 [1] [nM] | Ratio [2, 3] | IC50 [2] [nM] | Ratio [2, 4] | Compound |
| --- | --- | --- | --- | --- |
| > 500 | 10.69 | 50 to 100 |  | Cc1cc2nc(N[C@@H](C)c3cccnc3)nc(C(=O)NC[C@H]3CCOC3)c2s1 [Example Z388, 6-Methyl-2-(((S)-1-(pyridin-3-yl)ethyl)amino)-N—(((R)-tetrahydrofuran-3-yl)methyl)thieno[3,2-d]pyrimidine-4-carboxamide] |
| > 500 | 1.86 | > 500 |  | C[C@H](Nc1nc(C(=O)N2CC[C@@H](N)C2)c2sccc2n1)c1cccnc1 [Example Z366, ((R)-3-Aminopyrrolidin-1-yl)(2-(((S)-1-(pyridin-3-yl)ethyl)amino)thieno[3,2-d]pyrimidin-4-yl)methanone] |
| > 500 | 0.92 | > 500 |  | C[C@H](Nc1nc(C(=O)N2CCN(CCCc3ccccc3)CC2)c2sccc2n1)c1cccnc1 [Example Z69, (S)-(4-(3-Phenylpropyl)piperazin-1-yl)(2-((1-(pyridin-3-yl)ethyl)amino)thieno[3,2-d]pyrimidin-4-yl)methanone] |
| 50 to 100 |  | 50 to 100 | 1.46 | C[C@H](Nc1nc(C(=O)NCCC2CCCC2)c2sccc2n1)c1ccccn1 [Example Z424, (S)—N-(2-Cyclopentylethyl)-2-((1-(pyridin-2-yl)ethyl)amino)thieno[3,2-d]pyrimidine-4-carboxamide] |
| > 500 | 7.45 | 100 to 500 |  | C[C@H](Nc1nc(C(=O)NCC(C)(C)O)c2sccc2n1)c1ccccn1 [Example Z230, (S)—N-(2-Hydroxy-2-methylpropyl)-2-((1-(pyridin-2-yl)ethyl)amino)thieno[3,2-d]pyrimidine-4-carboxamide] |
| 100 to 500 |  | 100 to 500 |  | COc1cccc(CCNC(=O)c2nc(N[C@@H](C)c3ccccn3)nc3ccsc23)c1 [Example Z437, (S)—N-(3-Methoxyphenethyl)-2-((1-(pyridin-2-yl)ethyl)amino)thieno[3,2-d]pyrimidine-4-carboxamide] |
| > 500 | 17.41 | > 500 |  | CC(=O)N[C@@H]1CCN(C(=O)c2nc(NCc3cncc(F)c3)nc3ccsc23)C1 [Example Z318, (R)—N-(1-(2-(((5-Fluoropyridin-3-yl)methyl)amino)thieno[3,2-d]pyrimidine-4-carbonyl)pyrrolidin-3-yl)acetamide] |
| 100 to 500 |  | 50 to 100 | 3.47 | C[C@H](Nc1nc(C(=O)NCCC2CN(C(=O)OC(C)(C)C)C2)c2sccc2n1)c1ccccn1 [Example Z426, tert-Butyl (S)-3-(2-(2-((1-(pyridin-2-yl)ethyl)amino)thieno[3,2-d]pyrimidine-4-carboxamido)ethyl)azetidine-1-carboxylate] |
| > 500 |  | 100 to 500 | 3.91 | C[C@H](Nc1nc(C(=O)NCCc2ccc(S(C)(=O)=O)cc2)c2sccc2n1)c1cncc(F)c1 [Example Z455, (S)-2-((1-(5-Fluoropyridin-3-yl)ethyl)amino)-N-(4-(methylsulfonyl)phenethyl)thieno[3,2-d]pyrimidine-4-carboxamide] |
| > 500 | 4.88 | > 500 |  | C[C@H](Nc1nc(C(=O)N2CCOCC2)c2sccc2n1)c1cccnc1 [Example Z11, (S)-Morpholino(2-((1-(pyridin-3-yl)ethyl)amino)thieno[3,2-d]pyrimidin-4-yl)methanone] |
| > 500 |  | 100 to 500 | 5.32 | C[C@H](Nc1nc(C(=O)NCCc2ccc(NC(=O)OC(C)(C)C)cc2)c2sccc2n1)c1cncc(F)c1 [Example Z482, tert-Butyl (S)-(4-(2-(2-((1-(5-fluoropyridin-3-yl)ethyl)amino)thieno[3,2-d]pyrimidine-4-carboxamido)ethyl)phenyl)carbamate] |
| 100 to 500 | 1.74 | 100 to 500 |  | O=C(NCc1cccc(F)c1)c1nc(NCc2cccc(F)c2)nc2ccsc12 [Example Z74, N-(3-Fluorobenzyl)-2-((3-fluorobenzyl)amino)thieno[3,2-d]pyrimidine-4-carboxamide] |

Source: patent US11254686B1 (Corvus Pharmaceuticals, Inc., priority 2017, dated 2022)
